Reference: patent publication US9877921B2 (NOVA SOUTHEASTERN UNIVERSITY, priority 2011, dated 2018)

Assay: Discoloration (degradation) after nanoparticle processing by microfluidization
Type: physicochemical
Conditions: after high energy fluidization
Description: Nanoparticles were fabricated from epinephrine base or epinephrine bitartrate (Bit) using high energy fluidization (microfluidization) techniques. […] Particles sizes were measured before and after size reduction using a Mastersizer (Malvern) and/or a NiComp 370 Submicron Particle Sizer (NiComp). The particles were lyophilized (freeze-dried) using a bench top lyophilizer (ART Inc.).
The main problem was discoloration (a brown color formed) due to degradation.

Sample Color after Processing (discoloration indicating instability): did not show any discoloration
Structure (SMILES): CNC[C@H](O)c1ccc(O)c(O)c1 [Epinephrine Bit, epinephrine bitartrate]
